From patent publication US20260085082A1, “KDM1A INHIBITORS FOR THE TREATMENT OF DISEASE” (Imago Biosciences, Inc., priority 2022, published 2026)
pIC50: −log10 of the molar value. Read-outs that look alike come from different tables or passages of the source.

Key:
LSD1 = LSD1 (Homo sapiens, UniProt O60341); assay: LSD1 10-dose IC50 fluorescence coupling enzyme assay (HRP/Amplex Red, resorufin); format: biochemical; conditions: 10 M histone H3(1-21)K4me2 peptide substrate; 3-fold serial dilution in duplicate starting at 100 μM
Procedure: Compounds were tested in a 10-dose IC50 mode fluorescence coupling enzyme assay with 3-fold serial dilution in duplicate starting at 100 μM. The production of FAD-dependent H2O2 as a result of demethylase activity of LSD1 on […] histone H3(1-21)K4me2 peptide substrate was measured by coupling with HRP and Amplex Red to yield resorufin (fluorescence measured at Ex/Em=535/590 nm on EnVision, Perkin Elmer).

MV4;11 cells = assay: Cell Titer-Glo Luminescent Cell Viability Assay, cell growth inhibition against MV4;11 cells; format: cell-based; conditions: Homo sapiens
Procedure: Cell growth inhibition against MV4;11 cells was confirmed for the synthetic compounds. The Cell Titer-Glo Luminescent Cell Viability Assay (Promega, USA) was used to determine the number of viable cells in culture based on quantitation of the ATP present, which signals the presence of metabolically active cells. This assay was run in a 96-well plate format arrayed in a 10-point dose curve, ranging from 0 to 50 μM with 4-fold dilutions for each compound. Cells are seeded on Day 0 at 3750 cells per well. At Day 5, a portion of each well is assayed for viability according to the Cell Titer-Glo protocol. Briefly, cells/plates were centrifuged at 1100×g for 5 minutes. 100 μL of media was removed from each well and replaced with 100 μL of CellTiter-Glo. The plates were shaken at room temperature for 10 minutes and measured on a luminescence plate reader. Another portion of each well from the Day 5 plate is used to seed a new 96 plate containing fresh compound and media set up in the equivalent 10-point dose curve array in order to continue the cell growth inhibition assay for another 5 days. A final timepoint is collected at Day 10 using the Cell Titer-Glo protocol. Luminescence was detected on an EnVision® Multilabel Plate Reader (Perkin Elmer, Waltham, Mass.) and IC50 determination was made using Graph Pad Prism software.

[1] = MV4-11, 120 h, MV4;11 cells, Day 5, 10-point dose curve 0 to 50 μM, read-out: Cell Titer Glo IC50 (5 d)
[2] = MV4-11, MV4;11 cells, Day 10 (re-seeded at Day 5 with fresh compound), 10-point dose curve 0 to 50 μM, read-out: Cell Titer Glo IC50 (10 d)

Compound `COc1ccc(-n2nc(C(=O)N3CCC[C@@H](N)C3)cc2-c2ccc(C#N)c(F)c2)cc1F` [Example 36, (R)-4-(3-(3-aminopiperidine-1-carbonyl)-1-(3-fluoro-4-methoxyphenyl)-1H-pyrazol-5-yl)-2-fluorobenzonitrile] has a pIC50 (LSD1) of over 6.30 and a pIC50 (MV4;11 cells; [1]) of over 6.30.
`COc1ccc(-n2nc(C(=O)N3CCC[C@H](N)C3)cc2-c2ccc(C#N)c(F)c2)cc1F` [Example 37, (S)-4-(3-(3-aminopiperidine-1-carbonyl)-1-(3-fluoro-4-methoxyphenyl)-1H-pyrazol-5-yl)-2-fluorobenzonitrile] showed a pIC50 (LSD1) of 6.00 to 6.30 and a pIC50 (MV4;11 cells; [1]) of 5.00 to 6.00.
For `Cc1cc(CCn2nc(C(=O)N3CCC[C@@H](N)C3)cc2-c2ccc(C#N)c(F)c2)on1` [Example 38, (R)-4-(3-(3-aminopiperidine-1-carbonyl)-1-(2-(3-methylisoxazol-5-yl)ethyl)-1H-pyrazol-5-yl)-2-fluorobenzonitrile], the pIC50 (LSD1) was under 5.00 and the pIC50 (MV4;11 cells; [1]) was 5.00 to 6.00.
For `Cc1cc(CCn2nc(C(=O)N3CCC[C@H](N)C3)cc2-c2ccc(C#N)c(F)c2)on1` [Example 39, (S)-4-(3-(3-aminopiperidine-1-carbonyl)-1-(2-(3-methylisoxazol-5-yl)ethyl)-1H-pyrazol-5-yl)-2-fluorobenzonitrile], the pIC50 (LSD1) was under 5.00 and the pIC50 (MV4;11 cells; [1]) was under 5.00.
With `Cn1cc2cc(-n3nc(C(=O)N4CCCC(N)C4)cc3-c3ccc(C#N)c(F)c3)ccc2n1` (stereo not shown) [Example 40, 4-(3-(3-Aminopiperidine-1-carbonyl)-1-(2-methyl-2H-indazol-5-yl)-1H-pyrazol-5-yl)-2-fluorobenzonitrile] the pIC50 (LSD1) was over 6.30 and the pIC50 (MV4;11 cells; [1]) was over 6.30.
For `Cn1cc2cc(-n3nc(-c4ccc(C#N)c(F)c4)cc3C(=O)N3CCCC(N)C3)ccc2n1` (stereo not shown) [Example 41, 4-(5-(3-Aminopiperidine-1-carbonyl)-1-(2-methyl-2H-indazol-5-yl)-1H-pyrazol-3-yl)-2-fluorobenzonitrile], the pIC50 (LSD1) was over 6.30 and the pIC50 (MV4;11 cells; [1]) was 5.00 to 6.00.
In the case of `Cn1ncc2cc(-n3nc(C(=O)N4CCC[C@H](N)C4)cc3-c3ccc(C#N)c(F)c3)ccc21` [Example 42, (S)-4-(3-(3-aminopiperidine-1-carbonyl)-1-(1-methyl-1H-indazol-5-yl)-1H-pyrazol-5-yl)-2-fluorobenzonitrile 2,2,2-trifluoroacetate], the pIC50 (LSD1) was over 6.30, the pIC50 (MV4;11 cells; [1]) was 6.00 to 6.30 and the pIC50 (MV4;11 cells; [2]) was over 6.30.
Work on `Cn1ncc2cc(-n3nc(C(=O)N4CCC[C@@H](N)C4)cc3-c3ccc(C#N)c(F)c3)ccc21` [Example 43, (R)-4-(3-(3-aminopiperidine-1-carbonyl)-1-(1-methyl-1H-indazol-5-yl)-1H-pyrazol-5-yl)-2-fluorobenzonitrile 2,2,2-trifluoroacetate] yielded a pIC50 (LSD1) of over 6.30 and a pIC50 (MV4;11 cells; [2]) of over 6.30.
Compound `Cn1cc2cc(-n3nc(C(=O)N4CCC[C@H](N)C4)cc3-c3ccc(C#N)c(F)c3)ccc2n1` [Example 44, (S)-4-(3-(3-aminopiperidine-1-carbonyl)-1-(2-methyl-2H-indazol-5-yl)-1H-pyrazol-5-yl)-2-fluorobenzonitrile 2,2,2-trifluoroacetate] has a pIC50 (LSD1) of over 6.30, a pIC50 (MV4;11 cells; [1]) of over 6.30 and a pIC50 (MV4;11 cells; [2]) of over 6.30.
Work on `N#Cc1ccc(-c2cc(C(=O)N3CCC[C@@H](N)C3)nn2-c2ccc(N3CCC(OCCO)CC3)cc2)cc1F` [Example 45, (R)-4-(3-(3-aminopiperidine-1-carbonyl)-1-(4-(4-(2-hydroxyethoxy)piperidin-1-yl)phenyl)-1H-pyrazol-5-yl)-2-fluorobenzonitrile] yielded a pIC50 (LSD1) of over 6.30 and a pIC50 (MV4;11 cells; [2]) of over 6.30.
`N#Cc1ccc(-c2cc(C(=O)N3CCC[C@@H](N)C3)nn2-c2ccc(N3CCC(=O)CC3)cc2)cc1F` [Example 46, (R)-4-(3-(3-aminopiperidine-1-carbonyl)-1-(4-(4-oxopiperidin-1-yl)phenyl)-1H-pyrazol-5-yl)-2-fluorobenzonitrile] was tested, and the pIC50 (LSD1) was over 6.30 and the pIC50 (MV4;11 cells; [2]) was over 6.30.
With `CC1(O)CCN(c2ccc(-n3nc(C(=O)N4CCC[C@@H](N)C4)cc3-c3ccc(C#N)c(F)c3)cc2)CC1` [Example 47, (R)-4-(3-(3-aminopiperidine-1-carbonyl)-1-(4-(4-hydroxy-4-methylpiperidin-1-yl)phenyl)-1H-pyrazol-5-yl)-2-fluorobenzonitrile 2,2,2-trifluoroacetate] the pIC50 (LSD1) was over 6.30 and the pIC50 (MV4;11 cells; [2]) was over 6.30.
`N#Cc1ccc(-c2cc(C(=O)N3CCC[C@@H](N)C3)nn2-c2ccc(N3CCC(C#N)CC3)cc2)cc1F` [Example 48, (R)-1-(4-(3-(3-aminopiperidine-1-carbonyl)-5-(4-cyano-3-fluorophenyl)-1H-pyrazol-1-yl)phenyl)piperidine-4-carbonitrile 2,2,2-trifluoroacetate] showed a pIC50 (LSD1) of over 6.30 and a pIC50 (MV4;11 cells; [2]) of over 6.30.
`CN1CCN(c2ccc(-n3nc(C(=O)N4CCC[C@@H](N)C4)cc3-c3ccc(C#N)c(F)c3)cc2)CC1=O` [Example 50, (R)-4-(3-(3-aminopiperidine-1-carbonyl)-1-(4-(4-methyl-3-oxopiperazin-1-yl)phenyl)-1H-pyrazol-5-yl)-2-fluorobenzonitrile] showed a pIC50 (LSD1) of over 6.30 and a pIC50 (MV4;11 cells; [2]) of over 6.30.
With `COC1CCN(c2ccc(-n3nc(C(=O)N4CCC[C@@H](N)C4)cc3-c3ccc(C#N)c(F)c3)nc2)CC1` [Example 53, (R)-4-(3-(3-aminopiperidine-1-carbonyl)-1-(5-(4-methoxypiperidin-1-yl)pyridin-2-yl)-1H-pyrazol-5-yl)-2-fluorobenzonitrile 2,2,2-trifluoroacetate] the pIC50 (LSD1) was 5.00 to 6.00 and the pIC50 (MV4;11 cells; [2]) was over 6.30.
In the case of `CN1CCN(c2ccc(-n3nc(C(=O)N4CCC[C@@H](N)C4)cc3-c3ccc(C#N)c(F)c3)nc2)CC1` [Example 54, (R)-4-(3-(3-aminopiperidine-1-carbonyl)-1-(5-(4-methylpiperazin-1-yl)pyridin-2-yl)-1H-pyrazol-5-yl)-2-fluorobenzonitrile 2,2,2-trifluoroacetate], the pIC50 (LSD1) was 5.00 to 6.00 and the pIC50 (MV4;11 cells; [2]) was 5.00 to 6.00.
Work on `COC1CCN(c2ccc(-n3nc(-c4ccc(C#N)c(F)c4)cc3C(=O)N3CCC[C@@H](N)C3)cc2)CC1` [Example 57, (R)-4-(5-(3-aminopiperidine-1-carbonyl)-1-(4-(4-methoxypiperidin-1-yl)phenyl)-1H-pyrazol-3-yl)-2-fluorobenzonitrile 2,2,2-trifluoroacetate] yielded a pIC50 (LSD1) of over 6.30 and a pIC50 (MV4;11 cells; [2]) of 5.00 to 6.00.
`CN1CCN(c2ccc(-n3nc(-c4ccc(C#N)c(F)c4)cc3C(=O)N3CCC[C@@H](N)C3)cc2)CC1` [Example 58, (R)-4-(5-(3-aminopiperidine-1-carbonyl)-1-(4-(4-methylpiperazin-1-yl)phenyl)-1H-pyrazol-3-yl)-2-fluorobenzonitrile 2,2,2-trifluoroacetate] was tested, and the pIC50 (LSD1) was over 6.30 and the pIC50 (MV4;11 cells; [2]) was over 6.30.
With `CN1CCN(c2ccc(-n3nc(C(=O)N4CCC[C@H](N)C4)cc3-c3ccc(C#N)c(F)c3)cc2)CC1` [Example 59, (S)-4-(3-(3-aminopiperidine-1-carbonyl)-1-(4-(4-methylpiperazin-1-yl)phenyl)-1H-pyrazol-5-yl)-2-fluorobenzonitrile] the pIC50 (LSD1) was over 6.30, the pIC50 (MV4;11 cells; [1]) was 5.00 to 6.00 and the pIC50 (MV4;11 cells; [2]) was over 6.30.
Work on `CN1CCN(c2ccc(-n3nc(C(=O)N4CCC[C@@H](N)C4)cc3-c3ccc(C#N)c(F)c3)cc2)CC1` [Example 60, (R)-4-(3-(3-aminopiperidine-1-carbonyl)-1-(4-(4-methylpiperazin-1-yl)phenyl)-1H-pyrazol-5-yl)-2-fluorobenzonitrile] yielded a pIC50 (LSD1) of over 6.30, a pIC50 (MV4;11 cells; [1]) of 6.00 to 6.30 and a pIC50 (MV4;11 cells; [2]) of over 6.30.
`N#Cc1ccc(-c2cc(C(=O)N3CCC[C@H](N)C3)nn2-c2ccc(N3CCCC3)cc2)cc1F` [Example 61, (S)-4-(3-(3-aminopiperidine-1-carbonyl)-1-(4-(pyrrolidin-1-yl)phenyl)-1H-pyrazol-5-yl)-2-fluorobenzonitrile 2,2,2-trifluoroacetate] showed a pIC50 (LSD1) of over 6.30, a pIC50 (MV4;11 cells; [1]) of over 6.30 and a pIC50 (MV4;11 cells; [2]) of over 6.30.
Compound `N#Cc1ccc(-c2cc(C(=O)N3CCC[C@@H](N)C3)nn2-c2ccc(N3CCCC3)cc2)cc1F` [Example 62, (R)-4-(3-(3-aminopiperidine-1-carbonyl)-1-(4-(pyrrolidin-1-yl)phenyl)-1H-pyrazol-5-yl)-2-fluorobenzonitrile 2,2,2-trifluoroacetate] has a pIC50 (LSD1) of over 6.30 and a pIC50 (MV4;11 cells; [2]) of over 6.30.
Work on `COC1CCN(c2ccc(-n3nc(C(=O)N4CCC[C@H](N)C4)cc3-c3ccc(C#N)c(F)c3)cc2)CC1` [Example 63, (S)-4-(3-(3-aminopiperidine-1-carbonyl)-1-(4-(4-methoxypiperidin-1-yl)phenyl)-1H-pyrazol-5-yl)-2-fluorobenzonitrile 2,2,2-trifluoroacetate] yielded a pIC50 (LSD1) of over 6.30, a pIC50 (MV4;11 cells; [1]) of 6.00 to 6.30 and a pIC50 (MV4;11 cells; [2]) of over 6.30.
With `Cn1cc(-c2ccc(-n3nc(C(=O)N4CCC[C@H](N)C4)cc3-c3ccc(C#N)c(F)c3)cc2)cn1` [Example 65, (S)-4-(3-(3-aminopiperidine-1-carbonyl)-1-(4-(1-methyl-1H-pyrazol-4-yl)phenyl)-1H-pyrazol-5-yl)-2-fluorobenzonitrile 2,2,2-trifluoroacetate] the pIC50 (LSD1) was over 6.30, the pIC50 (MV4;11 cells; [1]) was 6.00 to 6.30 and the pIC50 (MV4;11 cells; [2]) was over 6.30.
